# Test results taken from patent US10544130B2, “Metallo-beta-lactamase inhibitors” (priority 2015, dated 2020).
# Experiments:
# [1] = tested on: Pseudomonas aeruginosa PAO1 MB9798 (efflux+, IMP-1); details: ratio MITC95 PA 9798/MITC95 PA 9799; imipenem at 2 μg/mL
# Method in brief: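 Isogenic PAO1 pair (efflux+ MB9798, efflux− MB9799, both IMP-1) tested by microbroth MIC with fixed imipenem and/or ceftazidime, usually at CLSI breakpoint, plus fixed class A/C inhibitor against AmpC. MBL inhibitor titrated; concentration restoring susceptibility recorded and fold difference between strains taken as efflux extent.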
# [2] = tested on: Klebsiella pneumoniae expressing VIM-1 (IHMA599644); type: cell-based; details: with imipenem 1 μg/ml; 95% inhibition of bacterial growth
# Method in brief: (§1)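 Growth read by absorbance after 22–24 h at 35 °C in CAMHB, with test compound alone or combined with 1 μg/ml imipenem. Inocula came from overnight 35 °C blood-agar colonies, set to a defined OD600 and diluted 1:100. Value is the inhibitor concentration giving synergy.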
# [3] = tested on: Serratia marcescens expressing IMP-1 (CL5741); type: cell-based; details: with imipenem 1 μg/ml; 95% inhibition of bacterial growth
# Method in brief: as §1
Compound,Efflux ratio [1],Klebsiella pneumoniae (VIM-1) MITC95 [2] [µM],Serratia marcescens (IMP-1) MITC95 [3] [µM]
"Nc1nc(-c2cccc(-c3ccc(S(=O)(=O)N[C@H]4CCNC4)c(S(N)(=O)=O)c3-c3nn[nH]n3)c2)c[nH]1 [Example 294, (S)-3′-(2-amino-1H-imidazol-4-yl)-N4-(pyrrolidin-3-yl)-2-(2H-tetrazol-5-yl)-[1,1′-biphenyl]-3,4-disulfonamide]",2.00,1.563,–
"Nc1ncccc1-c1ccc(S(=O)(=O)NC[C@@H]2CNCCN2)c(S(N)(=O)=O)c1-c1nn[nH]n1 [Example 313, (S)-4-(2-aminopyridin-3-yl)-N1-(piperazin-2-ylmethyl)-3-(2H-tetrazol-5-yl)benzene-1,2-disulfonamide]",2.00,3.125,–
"Nc1nc(-c2cccc(-c3ccc(S(=O)(=O)N[C@H]4CNC[C@H]4N)c(S(N)(=O)=O)c3-c3nn[nH]n3)c2)c[nH]1 [Example 327, 3′-(2-amino-1H-imidazol-4-yl)-N4-((3S,4R)-4-aminopyrrolidin-3-yl)-2-(2H-tetrazol-5-yl)[1,1′-biphenyl]-3,4-disulfonamide]",2.00,1.563,–
"NCCNS(=O)(=O)c1ccc(-c2cccnc2N)c(-c2nn[nH]n2)c1S(N)(=O)=O [Example 358, N1-(2-aminoethyl)-4-(2-aminopyridin-3-yl)-3-(2H-tetrazol-5-yl)benzene-1,2-disulfonamide]",2.00,1.563,–
"NCCNS(=O)(=O)c1ccc(-c2cnc3cc[nH]c3c2)c(-c2nn[nH]n2)c1S(N)(=O)=O [Example 359, N1-(2-aminoethyl)-4-(1H-pyrrolo[3,2-b]pyridin-6-yl)-3-(2H-tetrazol-5-yl)benzene-1,2-disulfonamide]",2.00,1.563,–
"NC[C@H](N)CNS(=O)(=O)c1ccc(-c2cccc3[nH]c(N)nc23)c(-c2nn[nH]n2)c1S(N)(=O)=O [Example 370, (S)-4-(2-amino-1H-benzo[d]imidazol-4-yl)-N1-(2,3-diaminopropyl)-3-(2H-tetrazol-5-yl)benzene-1,2-disulfonamide]",1.00,1.563,–
"C[C@@H](CN)NS(=O)(=O)c1ccc(-c2cccc3sc(N)nc23)c(-c2nn[nH]n2)c1S(N)(=O)=O [Example 389, 4-(2-amino-1,3-benzothiazol-4-yl)-N^1-[(1S)-2-amino-1-methylethyl]-3-(2H-tetrazol-S-yl)benzene-1,2-disulfonamide]",–,3.125,3.125
"C[C@@H](CN)NS(=O)(=O)c1ccc(-c2ccc(N)nc2)c(-c2nn[nH]n2)c1S(N)(=O)=O [Example 394, (S)-N^1-(1-aminopropan-2-yl)-4-(6-aminopyridin-3-yl)-3-(2H-tetrazol-5-yl)benzene-1,2-disulfonamide]",–,3.125,1.563
"C[C@H](CN)NS(=O)(=O)c1ccc(-c2cccc3c2nc(N)n3C)c(-c2nn[nH]n2)c1S(N)(=O)=O [Example 395, (R)-4-(2-amino-1-methyl-1H-benzo[d]imidazol-4-yl)-N^1-(1-aminopropan-2-yl)-3-(2H-tetrazol-5-yl)benzene-1,2-disulfonamide]",–,1.563,1.563
"NC[C@H](CO)NS(=O)(=O)c1ccc(-c2cccc3[nH]nnc23)c(-c2nn[nH]n2)c1S(N)(=O)=O [Example 407, (R)-N^1-(1-amino-3-hydroxypropan-2-yl)-4-(1H-benzo[d][1,2,3]triazol-4-yl)-3-(2H-tetrazol-5-yl)benzene-1,2-disulfonamide]",–,3.125,1.563
"NC[C@H](N)CNS(=O)(=O)c1ccc(-c2ccc(N)nc2)c(-c2nn[nH]n2)c1S(N)(=O)=O [Example 415, (S)-4-(6-aminopyridin-3-yl)-N^1-(2,3-diaminopropyl)-3-(2H-tetrazol-5-yl)benzene-1,2-disulfonamide]",–,3.125,–
"NC[C@H](O)CNS(=O)(=O)c1ccc(-c2ccc3nccn3c2)c(-c2nn[nH]n2)c1S(N)(=O)=O [Example 418, (S)-N^1-(3-amino-2-hydroxypropyl)-4-(imidazo[1,2-a]pyridin-6-yl)-3-(2H-tetrazol-5-yl)benzene-1,2-disulfonamide]",–,1.563,0.7813
"C[C@H](N)CNS(=O)(=O)c1ccc(-c2ccnc(N)c2)c(-c2nn[nH]n2)c1S(N)(=O)=O [Example 421, (S)-N^1-(2-aminopropyl)-4-(2-aminopyridin-4-yl)-3-(2H-tetrazol-5-yl)benzene-1,2-disulfonamide]",–,1.563,0.7813
"C[C@@H](N)CNS(=O)(=O)c1ccc(-c2ccnc(N)c2)c(-c2nn[nH]n2)c1S(N)(=O)=O [Example 422, (R)-N^1-(2-aminopropyl)-4-(2-aminopyridin-4-yl)-3-(2H-tetrazol-5-yl)benzene-1,2-disulfonamide]",–,1.563,0.7813
"NCC(CN)NS(=O)(=O)c1ccc(-c2cccc3ccc(N)nc23)c(-c2nn[nH]n2)c1S(N)(=O)=O [Example 430, 4-(2-aminoquinolin-8-yl)-N1-(1,3-diaminopropan-2-yl)-3-(2H-tetrazol-5-yl)benzene-1,2-disulfonamide]",–,1.563,1.563
"Nc1ncc(-c2cccc(-c3ccc(S(=O)(=O)N[C@@H]4CCNC4)c(S(N)(=O)=O)c3-c3nnn[nH]3)n2)[nH]1 [Example 439, (R)-4-(6-(2-Amino-1H-imidazol-5-yl)pyridin-2-yl)-N^1-(pyrrolidin-3-yl)-3-(1H-tetrazol-5-yl)benzene-1,2-disulfonamide]",–,1.563,1.563
"NCCNS(=O)(=O)c1ccc(-c2ccccc2NC(=O)CN)c(-c2nn[nH]n2)c1S(N)(=O)=O [Example 452, 2-Amino-N-(4′-(N-(2-aminoethyl)sulfamoyl)-3′-sulfamoyl-2′-(2H-tetrazol-5-yl)-[1,1′-biphenyl]-2-yl)acetamide]",–,6.25,–
"NCCNc1ncccc1-c1ccc(S(=O)(=O)N[C@@H]2CCNC2)c(S(N)(=O)=O)c1-c1nn[nH]n1 [Example 459, (R)-4-(2-((2-Aminoethyl)amino)pyridin-3-yl)-N1-(pyrrolidin-3-yl)-3-(2H-tetrazol-5-yl)benzene-1,2-disulfonamide]",–,1.563,1.563
"NC(=O)c1csc(Nc2cccc(-c3ccc(S(=O)(=O)N[C@@H]4CCNC4)c(S(N)(=O)=O)c3-c3nn[nH]n3)c2)n1 [Example 471, (R)-2-((4′-(N-(pyrrolidin-3-yl)sulfamoyl)-3′-sulfamoyl-2′-(2H-tetrazol-5-yl)-[1,1′-biphenyl]-3-yl)amino)thiazole-4-carboxamide]",–,3.125,–
"Nc1ccc(-c2ccc(S(=O)(=O)NC[C@@H]3CCCN3)c(S(N)(=O)=O)c2-c2nn[nH]n2)cn1 [Example 488, (S)-4-(6-aminopyridin-3-yl)-N1-(pyrrolidin-2-ylmethyl)-3-(2H-tetrazol-5-yl)benzene-1,2-disulfonamide]",–,1.563,–
